Experiment [1] deals with T1, RORγ-LBD (Homo sapiens, UniProt P51449).
T1 construct: made in house; host or cells: SF9 cells, baculovirus expression system; used as diluted lysate
T1 sequence (P51449 269-508 limits assumed): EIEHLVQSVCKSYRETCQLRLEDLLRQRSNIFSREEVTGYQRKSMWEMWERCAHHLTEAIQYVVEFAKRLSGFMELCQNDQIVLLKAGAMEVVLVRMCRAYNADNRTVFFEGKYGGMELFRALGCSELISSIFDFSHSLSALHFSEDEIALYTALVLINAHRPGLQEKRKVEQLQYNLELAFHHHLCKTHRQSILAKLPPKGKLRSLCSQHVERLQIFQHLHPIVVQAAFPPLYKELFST
Description: RORγ-Ligand Binding Domain (LBD) TR-FRET Assay. In kind it is biochemical. As to conditions: for EC50: in presence of 2 μM RORγ antagonist ursolic acid, SRC1 coactivator peptide; for TR-FRET Assay Max Response: upper plateau of 4-parameter fit, signal in the absence of ursolic acid or test compound set as 100. The procedure:
HIS-tagged RORγ-LBD protein was expressed in SF9 cells using a baculovirus expression system. The lysate was diluted in assay buffer (50 mM Tris pH 7.0, 50 mM KCl, 1 mM EDTA, 0.1 mM DTT, 0.01% BSA) to obtain RORγ-LBD final concentration of ˜3 nM in a 384-well assay plate (need to titrate for each batch of protein).
A stock of biotinylated-LXXLL peptide from coactivator SRC1 (Biotin-[…]) was prepared in assay buffer and added to each well (200 nM final concentration). A solution of Europium tagged anti-HIS antibody (0.6 nM final concentration) and APC-conjugated streptavidin (30 nM final concentration) were also added to each well. RORγ antagonist ursolic acid was also included at a final concentration of 2 μM. Compounds were diluted in DMSO and further diluted in assay buffer with a final DMSO concentration at 1%.
The final assay mixture was incubated overnight at 4° C. or 2 hours at room temperature, and the fluorescence signal was measured on an Envision plate reader: (Excitation filter=340 nm; APC emission=665 nm; Europium emission=615 nm; dichroic mirror=D400/D630; delay time=100 μs, integration time=200 μs). 50% Effective concentration (EC50) values for test compounds were calculated from the quotient of the fluorescence signal at 665 nm divided by the fluorescence signal at 615 nm. The quotient of the fluorescence signals in the absence of ursolic acid or test compound is set as 100. Max Response is defined as the upper plateau in the signal as determined by line-fit using a 4-parameter logistic model in PRISM (GraphPad).
(In general: In TR-FRET formats the signal depends on donor and acceptor labels being close together.)

The target of experiment [2] is T2, Gal4-RORγ-LBD (Homo sapiens, UniProt P51449).
T2 construct: expressed in transfected cells; pcDNA3.1neo plasmid, co-transfected with pGL4.31 Gal4-luciferase reporter
T2 sequence (P51449 269-508 limits assumed): T1 sequence (P51449 269-508 limits assumed)
Description: Gal4-RORγ Luciferase Reporter Assay in HEK-293T Cells. The format is cell-based. As to conditions: for EC50: HEK-293 cells, in presence of 2 μM ursolic acid, overnight incubation, read-out: Ga14-RORγ Assay EC50; for Ga14-RORγ Assay Max Response: upper plateau of 4-parameter fit, luciferase signal in the absence of ursolic acid or test compound defined at 100. Here is the method: In the following protocol, HEK-293 cells were transfected with a construct comprising the Gal4 DNA binding domain fused to the ligand binding domain of RORγ (Gal4-RORγ-LBD) in a pcDNA3.1neo plasmid, and also with a reporter construct comprising pGL4.31 Gal4-luciferase (Promega). Control cells were prepared similarly using empty pcDNA3.1neo and pGL4.31 vectors.
Trans-IT reagent (Mirus, 60 μL) at room temperature was added drop wise to OptiMEM (Invitrogen, 1.5 ml). This reagent mixture was mixed by inversion then incubated for 5 to 30 minutes at room temperature. It then was added to a solution of both expression vectors (5 μg each), mixed, and incubated at room temperature for about 20 minutes. HEK-293 cells were harvested from incubation flasks by removing the media, treating with TrypLE Express (Invitrogen), and incubating until the cells detached from the bottom of the flask (approximately 2-5 minutes). 10 Million cells were collected by centrifugation and re-suspended in 10 mL of Dulbecco's Modified Eagle Medium, High Glucose (DMEM, Invitrogen) containing 10% Fetal Bovine Serum and 100 IU each of penicillin and streptomycin. The re-suspended cells and the transfection mixture were added to a T75 flask, mixed and incubated overnight at 37° C. and 5% CO2.
The cells were harvested as described above, counted, and centrifuged to obtain the desired number of cells, then re-suspended in complete growth media at 0.75×10^6 cells/mL. The RORγ antagonist, ursolic acid, was added to the cells at a final concentration of 2 μM. Cells were plated at 20 μL of cell suspension/well (10,000-15,000 cells/well) in white tissue culture treated 384 well plates. Test compounds were dissolved at 10 mM in DMSO then diluted into complete growth medium to 5× the final intended test concentration. These drug stock solutions, 5 μL/well were added to the tissue culture plate. The final DMSO concentration was 0.2%. The plates were briefly centrifuged then incubated overnight at 37° C. and 5% CO2. To conduct the assay, the tissue culture plates were allowed to equilibrate to room temperature and One-Glo luciferase reagent (Promega, 25 μL/well) was added. The plates were briefly centrifuged then incubated at room temperature for 10 minutes. The luciferase intensity was read on an Envision plate reader (Perkin Elmer). RORγ activity was determined relative to controls and plotted as a function of test compound concentration using PRISM (GraphPad) to determine a 50% effective concentration (EC50). The luciferase signal in the absence of ursolic acid or test compound is defined at 100. The Max Response is the upper plateau in the signal as determined by line-fit using a 4-parameter logistic model in PRISM (GraphPad).
In general terms: Reporter assays use an easily measured gene product as a stand-in for the process of interest.

The structures appear in SMILES notation. Where only a bound is given, the exact number is not on record here.

`COc1cc(S(=O)(=O)N2C[C@H](CCc3n[nH]c(=O)o3)Oc3ccc(/C=C(\C)c4c(F)cccc4Cl)cc32)ccc1F`: in experiment [1], the EC50 (in general, the concentration at which the effect is half-maximal) was below 0.1 µM and the “TR-FRET Assay Max Response” value is on record as “** (a value in the range of greater than 90 to 150)”. Moreover, in experiment [2], the 50% effective concentration (EC50) fell in the range of 0.1 to 5 µM and the “Ga14-RORγ Assay Max Response” value was “** (a value in the range of greater than 90 to 150)”.

Take `CCOc1nn(CC)cc1S(=O)(=O)N1C[C@H](CCc2n[nH]c(=O)o2)Oc2ccc(/C=C(\C)c3c(F)cccc3Cl)cc21`: in experiment [1], the half-maximal effective concentration (EC50) is below 0.1 µM and the “TR-FRET Assay Max Response” value is recorded as “*** (a value in the range of greater than 150 to 200)”. Moreover, in experiment [2], the concentration giving a half-maximal response (EC50) was 0.1 to 5 µM and the “Ga14-RORγ Assay Max Response” value was “*** (a value in the range of greater than 150 to 200)”.

With `C/C(=C\c1ccc2c(c1)N(S(=O)(=O)c1cccc(OC(F)F)c1)C[C@H](CCOc1noc(=O)[nH]1)O2)c1c(F)cccc1Cl`, in experiment [1], the concentration giving a half-maximal response (EC50) was below 0.1 µM and the “TR-FRET Assay Max Response” value was “*** (a value in the range of greater than 150 to 200)”. Also, in experiment [2], the concentration giving a half-maximal response (EC50) lay in the range of 0.1 to 5 µM and the “Ga14-RORγ Assay Max Response” value was “** (a value in the range of greater than 90 to 150)”.

Regarding `C/C(=C\c1ccc2c(c1)N(S(=O)(=O)c1cccc(C(F)(F)F)c1)C[C@H](CCn1ccnn1)O2)c1c(F)cccc1Cl`, in experiment [1], the EC50 was below 0.1 µM and the “TR-FRET Assay Max Response” value is recorded as “*** (a value in the range of greater than 150 to 200)”. In experiment [2], the concentration for a half-maximal effect (EC50) was in the range of 0.1 to 5 µM and the “Ga14-RORγ Assay Max Response” value is recorded as “** (a value in the range of greater than 90 to 150)”.

Take `O=c1[nH]nc(CC[C@H]2CN(S(=O)(=O)c3cccc(C(F)(F)F)c3)c3cc(/C=C/c4ncccc4C(F)(F)F)ccc3O2)o1`: in experiment [1], the half-maximal effective concentration (EC50) is below 0.1 µM and the “TR-FRET Assay Max Response” value is “*** (a value in the range of greater than 150 to 200)”. For the same compound, in experiment [2], the EC50 fell in the range of 0.1 to 5 µM and the “Ga14-RORγ Assay Max Response” value is “** (a value in the range of greater than 90 to 150)”.

Source of the values: patent US10421751B2, “Dihydro-2H-benzo[b][1,4]oxazine sulfonamide and related compounds for use as agonists of RORγ and the treatment of disease” (Lycera Corporation, priority 2015, dated 2019).
